Measured values: the supplement of paper PMC10307832

What was measured:
Assay in all cases: relative viability (nuclei count vs DMSO), 5 days (fraction); higher = more cells survive
[1] = compound: CC1=CC(=CC=C1)NC2=NC(=CS2)C3=CC=NC=C3 + Cc1cc(Nc2cc(N3CCN(C)CC3)nc(Sc3ccc(NC(=O)C4CC4)cc3)n2)n[nH]1 [Tozasertib] (partner 0.1 µM)
Method in brief: (§1)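 Lung cancer cell lines were pin-tool dosed in 1536-well plates on the day after seeding, with either a lone drug or a fixed anchor-drug dose plus five library-drug doses (not always all listed) in √10 steps. Nuclei were counted on 4× images after 5 days. Relative viability is the ratio of treated-well to vehicle-well nuclei counts, with each value a median of duplicate plates.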

Masitinib + Palbociclib = compound: Cc1ccc(NC(=O)c2ccc(CN3CCN(C)CC3)cc2)cc1Nc1nc(-c2cccnc2)cs1 [Masitinib] + CC(=O)c1c(C)c2cnc(Nc3ccc(N4CCNCC4)cn3)nc2n(C2CCCC2)c1=O [Palbociclib] (partner 0.5 µM)
Method in brief: as §1

Masitinib + Navitoclax = compound: Cc1ccc(NC(=O)c2ccc(CN3CCN(C)CC3)cc2)cc1Nc1nc(-c2cccnc2)cs1 [Masitinib] + CC1(C)CCC(c2ccc(Cl)cc2)=C(CN2CCN(c3ccc(C(=O)NS(=O)(=O)c4ccc(N[C@H](CCN5CCOCC5)CSc5ccccc5)c(S(=O)(=O)C(F)(F)F)c4)cc3)CC2)C1 [Navitoclax] (partner 0.5 µM)
Method in brief: as §1

Masitinib + Linsitinib = compound: Cc1ccc(NC(=O)c2ccc(CN3CCN(C)CC3)cc2)cc1Nc1nc(-c2cccnc2)cs1 [Masitinib] + C[C@]1(O)C[C@@H](c2nc(-c3ccc4ccc(-c5ccccc5)nc4c3)c3c(N)nccn32)C1 [Linsitinib] (partner 1 µM)
Method in brief: as §1

ChaGo-K-1
relative viability ([1]; first compound 0.08 µM): 0.227 | relative viability ([1]; first compound 0.253 µM): 0.241 | relative viability ([1]; first compound 0.8 µM): 0.241 | relative viability ([1]; first compound 2.53 µM): 0.235 | relative viability ([1]; first compound 8 µM): 0.231 | relative viability (Masitinib + Palbociclib; first compound 0.01 µM): 0.954 | relative viability (Masitinib + Palbociclib; first compound 0.03162 µM): 0.952 | relative viability (Masitinib + Palbociclib; first compound 0.1 µM): 0.966 | relative viability (Masitinib + Palbociclib; first compound 0.3162 µM): 0.972 | relative viability (Masitinib + Palbociclib; first compound 1 µM): 0.897 | relative viability (Masitinib + Navitoclax; first compound 0.01 µM): 1.36 | relative viability (Masitinib + Navitoclax; first compound 0.03162 µM): 0.979 | relative viability (Masitinib + Navitoclax; first compound 0.1 µM): 1.31 | relative viability (Masitinib + Navitoclax; first compound 0.3162 µM): 1.1 | relative viability (Masitinib + Navitoclax; first compound 1 µM): 0.839

NCI-H522
relative viability ([1]; first compound 0.08 µM): 0.539 | relative viability ([1]; first compound 0.253 µM): 0.54 | relative viability ([1]; first compound 0.8 µM): 0.59 | relative viability ([1]; first compound 2.53 µM): 0.504 | relative viability ([1]; first compound 8 µM): 0.643 | relative viability (Masitinib + Palbociclib; first compound 0.01 µM): 1.03 | relative viability (Masitinib + Palbociclib; first compound 0.03162 µM): 1.07 | relative viability (Masitinib + Palbociclib; first compound 0.1 µM): 1.31 | relative viability (Masitinib + Palbociclib; first compound 0.3162 µM): 0.849 | relative viability (Masitinib + Palbociclib; first compound 1 µM): 1.13

NCI-H1648
relative viability ([1]; first compound 0.08 µM): 0.387 | relative viability ([1]; first compound 0.253 µM): 0.315 | relative viability ([1]; first compound 0.8 µM): 0.46 | relative viability ([1]; first compound 2.53 µM): 0.384 | relative viability ([1]; first compound 8 µM): 0.294 | relative viability (Masitinib + Palbociclib; first compound 0.01 µM): 0.297 | relative viability (Masitinib + Palbociclib; first compound 0.03162 µM): 0.313 | relative viability (Masitinib + Palbociclib; first compound 0.1 µM): 0.289 | relative viability (Masitinib + Palbociclib; first compound 1 µM): 0.228

NCI-H1563
relative viability (Masitinib + Linsitinib; first compound 0.01 µM): 1.17 | relative viability (Masitinib + Linsitinib; first compound 0.03162 µM): 1.09 | relative viability (Masitinib + Linsitinib; first compound 0.1 µM): 1.19 | relative viability (Masitinib + Linsitinib; first compound 0.3162 µM): 1.26 | relative viability (Masitinib + Linsitinib; first compound 1 µM): 1.17

NCI-H2342
relative viability ([1]; first compound 0.08 µM): 0.533 | relative viability ([1]; first compound 0.253 µM): 0.423 | relative viability ([1]; first compound 0.8 µM): 0.573 | relative viability ([1]; first compound 2.53 µM): 0.476 | relative viability ([1]; first compound 8 µM): 0.505 | relative viability (Masitinib + Palbociclib; first compound 0.01 µM): 0.532 | relative viability (Masitinib + Palbociclib; first compound 0.03162 µM): 0.524 | relative viability (Masitinib + Palbociclib; first compound 0.1 µM): 0.566 | relative viability (Masitinib + Palbociclib; first compound 0.3162 µM): 0.507 | relative viability (Masitinib + Palbociclib; first compound 1 µM): 0.529

SW 900
relative viability ([1]; first compound 0.08 µM): 0.533 | relative viability ([1]; first compound 0.253 µM): 0.437 | relative viability ([1]; first compound 0.8 µM): 0.476 | relative viability ([1]; first compound 2.53 µM): 0.365 | relative viability ([1]; first compound 8 µM): 0.299 | relative viability (Masitinib + Palbociclib; first compound 0.01 µM): 0.462 | relative viability (Masitinib + Palbociclib; first compound 0.03162 µM): 0.458 | relative viability (Masitinib + Palbociclib; first compound 0.1 µM): 0.575 | relative viability (Masitinib + Palbociclib; first compound 0.3162 µM): 0.502 | relative viability (Masitinib + Palbociclib; first compound 1 µM): 0.513

A549
relative viability (Masitinib + Navitoclax; first compound 0.01 µM): 1.18 | relative viability (Masitinib + Navitoclax; first compound 0.03162 µM): 1.19 | relative viability (Masitinib + Navitoclax; first compound 0.1 µM): 1.41 | relative viability (Masitinib + Navitoclax; first compound 0.3162 µM): 1.19 | relative viability (Masitinib + Navitoclax; first compound 1 µM): 1.23 | relative viability (Masitinib + Linsitinib; first compound 0.01 µM): 0.576 | relative viability (Masitinib + Linsitinib; first compound 0.03162 µM): 0.602 | relative viability (Masitinib + Linsitinib; first compound 0.1 µM): 0.667 | relative viability (Masitinib + Linsitinib; first compound 0.3162 µM): 0.681 | relative viability (Masitinib + Linsitinib; first compound 1 µM): 0.545

NCI-H358
relative viability ([1]; first compound 0.08 µM): 0.112 | relative viability ([1]; first compound 0.253 µM): 0.116 | relative viability ([1]; first compound 0.8 µM): 0.11 | relative viability ([1]; first compound 2.53 µM): 0.118 | relative viability ([1]; first compound 8 µM): 0.101 | relative viability (Masitinib + Palbociclib; first compound 0.01 µM): 0.123 | relative viability (Masitinib + Palbociclib; first compound 0.03162 µM): 0.138 | relative viability (Masitinib + Palbociclib; first compound 0.1 µM): 0.15 | relative viability (Masitinib + Palbociclib; first compound 0.3162 µM): 0.133 | relative viability (Masitinib + Palbociclib; first compound 1 µM): 0.136 | relative viability (Masitinib + Linsitinib; first compound 0.01 µM): 0.86 | relative viability (Masitinib + Linsitinib; first compound 0.03162 µM): 0.877 | relative viability (Masitinib + Linsitinib; first compound 0.1 µM): 0.715 | relative viability (Masitinib + Linsitinib; first compound 0.3162 µM): 0.809 | relative viability (Masitinib + Linsitinib; first compound 1 µM): 0.623

NCI-H1650
relative viability ([1]; first compound 0.08 µM): 0.531 | relative viability ([1]; first compound 0.253 µM): 0.543 | relative viability ([1]; first compound 0.8 µM): 0.461 | relative viability ([1]; first compound 2.53 µM): 0.363 | relative viability ([1]; first compound 8 µM): 0.269 | relative viability (Masitinib + Palbociclib; first compound 0.01 µM): 0.242 | relative viability (Masitinib + Palbociclib; first compound 0.03162 µM): 0.321 | relative viability (Masitinib + Palbociclib; first compound 0.1 µM): 0.254 | relative viability (Masitinib + Palbociclib; first compound 0.3162 µM): 0.298 | relative viability (Masitinib + Palbociclib; first compound 1 µM): 0.376 | relative viability (Masitinib + Navitoclax; first compound 0.01 µM): 1.25 | relative viability (Masitinib + Navitoclax; first compound 0.03162 µM): 0.981 | relative viability (Masitinib + Navitoclax; first compound 0.1 µM): 1.15 | relative viability (Masitinib + Navitoclax; first compound 0.3162 µM): 1.13 | relative viability (Masitinib + Navitoclax; first compound 1 µM): 1.14

ABC-1
relative viability ([1]; first compound 0.08 µM): 0.206 | relative viability ([1]; first compound 0.253 µM): 0.173 | relative viability ([1]; first compound 0.8 µM): 0.176 | relative viability ([1]; first compound 2.53 µM): 0.187 | relative viability ([1]; first compound 8 µM): 0.237 | relative viability (Masitinib + Palbociclib; first compound 0.01 µM): 0.699 | relative viability (Masitinib + Palbociclib; first compound 0.03162 µM): 0.855 | relative viability (Masitinib + Palbociclib; first compound 0.1 µM): 0.784 | relative viability (Masitinib + Palbociclib; first compound 0.3162 µM): 0.598 | relative viability (Masitinib + Palbociclib; first compound 1 µM): 0.661 | relative viability (Masitinib + Linsitinib; first compound 0.01 µM): 0.78 | relative viability (Masitinib + Linsitinib; first compound 0.03162 µM): 0.78 | relative viability (Masitinib + Linsitinib; first compound 0.1 µM): 0.982 | relative viability (Masitinib + Linsitinib; first compound 0.3162 µM): 0.871 | relative viability (Masitinib + Linsitinib; first compound 1 µM): 0.622

LCLC-103H
relative viability ([1]; first compound 0.08 µM): 0.529 | relative viability ([1]; first compound 0.253 µM): 0.405 | relative viability ([1]; first compound 0.8 µM): 0.427 | relative viability ([1]; first compound 2.53 µM): 0.429 | relative viability ([1]; first compound 8 µM): 0.388 | relative viability (Masitinib + Palbociclib; first compound 0.03162 µM): 0.471 | relative viability (Masitinib + Palbociclib; first compound 0.1 µM): 0.458 | relative viability (Masitinib + Palbociclib; first compound 0.3162 µM): 0.511 | relative viability (Masitinib + Palbociclib; first compound 1 µM): 0.475 | relative viability (Masitinib + Linsitinib; first compound 0.01 µM): 0.796 | relative viability (Masitinib + Linsitinib; first compound 0.03162 µM): 1.02 | relative viability (Masitinib + Linsitinib; first compound 0.1 µM): 0.859 | relative viability (Masitinib + Linsitinib; first compound 0.3162 µM): 1.01 | relative viability (Masitinib + Linsitinib; first compound 1 µM): 1.08
